Series [1] relates to HIV-1 pNL-4.3 clone (pNL4-3 wild type). The series is described as follows: Antiviral test in HeLa-P4 cells (single cycle, CPRG beta-galactosidase test). Type of series: cell-based. As to the method:
HeLa-P4 cells are HeLa CD4 LTR-LacZ cells in which the expression of LacZ is induced by the trans-activating Tat protein of HIV, making it possible to precisely quantify the HIV-1 infectivity from a single replication cycle. HeLa-CD4 cells growing exponentially at a density of 1×10^4/ml are placed in 96-well plates and infected on the following day with 3 ng of HIV p24 antigen in the presence of various concentrations of compounds.
(§1) The titres for a single cycle of the virus were determined in HeLa-P4 cells. The cells were infected, in duplicate, in 96-well plates, with the HIV-1 pNL-4.3 clone (equivalent to 3 ng of p24 antigen). The titres for a single cycle of the viruses were determined 48 hours after infection by quantifying the beta-galactosidase activity in P4 lysates by means of a colorimetric test (CPRG test) based on cleavage of chlorophenol red-beta-D-galactopyranoside (CPRG) by beta-galactosidase. The 50% inhibitory concentration (IC50) was determined as the concentration of compound A providing 50% inhibition of beta-galactosidase levels compared with the untreated infected cells.
The antiviral activity of compound A according to the invention was evaluated using an amount of HIV corresponding to 3 ng of p24 antigen.
(§2) Compound A according to the invention was tested on the pNL4-3 virus optionally modified by site-directed mutagenesis, comprising or not comprising (wt) the mutations located in the reverse transcriptase gene and associated with resistance to the main NRTIs used in clinical practice. Tables 1A to 1C below group together the resistance indices of compound A according to the invention on the viruses with and without mutation.
(§3) The resistance index of a mutant represents the ratio of the concentration of compound capable of inhibiting by half (IC50) the growth of the mutant virus tested, to the concentration of compound capable of inhibiting by half (IC50) the growth of the wild-type virus.

The next series concerns pNL4-3 G140S-Q184H. In words: Resistance index on pNL4-3 virus modified by site-directed mutagenesis. Type of series: cell-based, HIV-1. As to conditions: Table 1C; integrase-inhibitor-resistance mutant G140S-Q184H; ratio IC50 mutant / IC50 wild type. Here is the method: as §1, §2
The resistance index of a mutant represents the ratio of the concentration of compound capable of inhibiting by half (IC50) the growth of the mutant virus tested, to the concentration of compound capable of inhibiting by half (IC50) the growth of the wild-type virus. […]

A further series in a line: in vitro. Type of series: cell-based. As to conditions: read-out: CC50 (50% cytotoxic concentration). Here is the method: A cell viability test measuring the absorbance at 560 and 690 nm using the yellow tetrazolium […] [3-(4,5-dimethyl-2-thiazolyl)-2,5-diphenyltetrazolium bromide] reagent was carried out with the tetrabenzoyladenosine in the HeLa-CD4, Vero, FH, MT2 and SupT1 cell lines.
Using various cell types (HeLa-CD4, Vero, FH, MT2 and SupT1), the CC50 (50% cytotoxic concentration) of compound A was measured at more than 100 μM in all cases.

The test system of series [2] is Lai virus in MT2 cells, extracellular viral RNA. The series is described as follows: Inhibition of viral RNA production in culture medium (Cobas TaqMan HIV-1 v2 test). Type of series: cell-based. Here is the method: (§4) The MT2 cells were concentrated at 15×10^6/ml and incubated for 2 h with 10 or 25 μM of compound A. The Lai virus is then added at a multiplicity of infection of 0.01 for 1 h. The cells are washed and then incubated in culture medium containing 10 or 25 μM of the compound to be tested. A sample of 1×10^6 cells is taken at various times and the viral DNA is quantified by means of a Taqman real-time PCR method. The viral RNA loads are quantified in the culture medium (Cobas AmpliPrep/Cobas TaqMan (CTM) HIV-1 v2 test).
(In general: Quantitative PCR measures a nucleic acid by following its amplification.)

Another series has as its system pNL4-3 K65R-M184V. Type of series: cell-based, HIV-1. As to the method:
as §1, §2, §3
(§5) A resistance index greater than approximately 1.5 or 2 signifies that the viral strain is resistant to the treatment.

Another series has as its system pNL4-3 M184V. Type of series: cell-based, HIV-1. Here is the method: as §1, §2, §3, §5
Another series relates to pNL4-3 M41L-L210W-T215Y. Type of series: cell-based, HIV-1. As to the method: as §1, §2, §3, §5
The subject of the next series is pNL4-3 K103N. Type of series: cell-based, HIV-1. As to the method: as §1, §2, §3, §5
The next series deals with pNL4-3 T215Y. Type of series: cell-based, HIV-1. As to the method: as §1, §2, §3, §5
Another series relates to pNL4-3 E138K. Type of series: cell-based, HIV-1. As to the method:
as §1, §2, §3, §5

The next series concerns pNL4-3 K65R. Type of series: cell-based, HIV-1. As to the method: as §1, §2, §3, §5
Series [3] deals with pNL4-3 M184V-M41L-L210W-T215Y. Type of series: cell-based, HIV-1. As to the method:
as §1, §2, §3, §5

Another series concerns LAI viruses in MT2 cells. In words: Antiviral test in MT2 cells (viral load on day 3). Type of series: cell-based, HIV-1. As to conditions: Human immunodeficiency virus 1; MT2 cells infected with LAI viruses. Here is the method:
The MT2 cells were concentrated at 3×10^6/ml and infected with 10^7 viruses (LAI). The cells were distributed into 96-well plates (1×10^5/well) and incubated in the presence of various concentrations of compound A (in quadruplicate). The viral loads were determined on day 3 (Cobas AmpliPrep/Cobas TaqMan (CTM) HIV-1 v2 test).
Compound A was tested on MT2 cells infected with LAI viruses.

A further series deals with pNL4-3 Q184H. The series is described as follows: Resistance index on pNL4-3 virus modified by site-directed mutagenesis. Type of series: cell-based, HIV-1. The note with it: Table 1C; integrase-inhibitor-resistance mutant Q184H; ratio IC50 mutant / IC50 wild type.
Series [4] has as its system Lai virus in MT2 cells, intracellular viral DNA. In words: Inhibition of double-stranded proviral DNA production (Taqman real-time PCR). Type of series: cell-based, HIV-1. The note with it: 10 or 25 μM of compound, FIG. 2. Here is the method:
as §4

For a further series, the system named is pNL4-3 N155H. Type of series: cell-based, HIV-1.
Setting [5] is: amount of HIV corresponding to 3 ng of p24 antigen.

Broadly, the IC50 is the point on the concentration scale where inhibition reaches its midpoint. The low end stands for greater potency in that assay, the high end for weaker potency in that assay.

Molecules are shown by their SMILES. Read-outs that look alike come from different tables or passages of the source. Some results are limits rather than exact numbers.

In the case of `O=C(Nc1ncnc2c1ncn2[C@@H]1O[C@H](CO)[C@H](OC(=O)c2ccccc2)[C@@H]1OC(=O)c1ccccc1)c1ccccc1` [reference compound], the “Viral production (10 μM of compound)” value in series [1] (setting [5]) is reported as 109%.
With `O=C(O[C@@H]1[C@H](OC(=O)c2ccccc2)[C@H](n2cnc3c(N(C(=O)c4ccccc4)C(=O)c4ccccc4)ncnc32)O[C@@H]1CO)c1ccccc1` (stereo in doubt) [compound A, N^6,N^6,O^2′,O^3′-tetrabenzoyladenosine], the Resistance index in the series on pNL4-3 G140S-Q184H came out at 0.99; in the series with pNL4-3 K103N, 1; in the series on pNL4-3 E138K it was 0.89; in series [1] ({}) it was 1; in the series with pNL4-3 Q184H, 0.88; in the series on pNL4-3 N155H, 1.04. Further, the CC50 was > 100 µM in “in vitro” (African green monkey, Vero cells); > 100 µM in “in vitro” (FH cells); > 100 µM in “in vitro” (human, HeLa-CD4 cells); > 100 µM in “in vitro” (human, MT2 cells); > 100 µM in the series “in vitro” (human, SupT1 cells). In addition, the “production of the extracellular viral RNA” value in series [2] (10 or 25 μM of compound, FIG. 3) is “inhibited”. Besides, the “inhibition of the viral load, comparison with AZT (zidovudine)” value in [2] (FIGS. 2 and 3) is on record as “clear superiority”. Further, the “Resistance index (fold change)” value in the series on pNL4-3 K65R-M184V was found to be 1.07 fold change; in the series with pNL4-3 M184V, 0.99 fold change; with pNL4-3 M41L-L210W-T215Y, 0.38 fold change; in the series with pNL4-3 T215Y it was 0.41 fold change; in the series with pNL4-3 K65R it was 0.92 fold change; in series [3] it was 0.58 fold change. Besides, the “Resistance index (fold change)” value in [1] ({}) came out at 1 fold change. Besides, the IC50 was 1.6 µM with LAI viruses in MT2 cells and 1 to 2 µM in series [1] (Human immunodeficiency virus 1, HeLaP4, amount of HIV corresponding to 3 ng of p24 antigen, FIG. 1). Moreover, the “Viral production (10 μM of compound)” value in [1] (setting [5]) is given as 0%. The “appearance of the intracellular viral DNA” value in series [4] is recorded as “inhibited”.

Source of the values: US9181294B2, “Nucleoside analogues for the treatment of a viral infection, and method for evaluating the sensitivity to said treatment” (priority 2011, dated 2015).
